The subject of assay [1] is (R)-form-specific transaminase of Arthrobacter sp. KNK168. Nature of the assay: Reactivity of purified enzyme to carbonyl compounds, (R)-1-phenylethylamine as amino donor. It is filed as biochemical. The note with it: for Relative Activity (%) of carbonyl compounds: purified enzyme, 25 mM carbonyl compound, 25 mM (R)-1-phenylethylamine, pH 8.5, 30° C., 1 to 3 hours, pyruvic acid = 100; for reactivity of carbonyl compound: (R)-1-phenylethylamine as amino donor. As for the experimental part:
Using the purified enzyme obtained in Example 9, reactivities to various carbonyl compounds using (R)-1-phenylethylamine as an amino donor were evaluated. 50 μl of a solution of the purified enzyme was added to 200 μl of a substrate solution (0.1 M Tris-HCl buffer (pH 8.5), 25 mM (R)-1-phenylethylamine, 0.1 mM pyridoxal phosphate, and 25 mM various carbonyl compounds), and the components were reacted at 30° C. for 1 to 3 hours. The reaction tube was transferred into boiling water to stop the reaction, and, thereafter, the reaction mixture was diluted five-folds with methanol. This diluted solution was analyzed by high-performance liquid chromatography using fine pack C18-5 column and using methanol/water (20:80) as an eluent solution to quantitatively analyze acetophenone formed by the reaction.

In assay [2] the test system is Arthrobacter species KNK168 strain. The experiment in a line: Amino donor test; (R)-DMA formation by cultured cells. It is filed as cell-based. The method, then:
The cultured cells were harvested by centrifugation, and the harvested cells were suspended in a reaction mixture (pH 8.5) containing 1% of 1-(3,4-dimethoxyphenyl)-2-propanone, […] of Triton X-100, and 1% of an amino donor shown in Table 2. The components were reacted at 35° C. for 20 hours.

Assay [3] concerns transaminase (intracellular enzyme) of Arthrobacter sp. KNK168. Nature of the assay: Activity of the transaminase (intracellular enzyme) against typical substrates of ω-aminotransferases. Type of assay: biochemical.
For assay [4], the system named is (R)-form-specific transaminase of Arthrobacter sp. KNK168. The experiment in a line: Reactivity of purified transaminase of present invention to amino compounds, pyruvic acid as amino acceptor. It is filed as biochemical. Conditions: for Relative Activity (%) of amino compounds: purified enzyme, 40 mM amino compound in substrate solution, 40 mM pyruvic acid, pH 8.3, 30° C., 1 hour, (R)-1-phenylethylamine = 100; for reactivity of amino compound: pyruvic acid as amino acceptor. The source says:
The differences with the ω-amino acid transaminase derived from Pseudomonas sp. F-1 (Agric. Biol. Chem., 42, 2363-2367 (1978), Agric. Biol. Chem., 43, 1043-1048 (1979), J. Biol. Chem., 258, 2260-2265 (1983)) which have been well studied among the ω-amino acid transaminases, and with the benzylamine transaminase of Okada et al. (Japanese Patent Laid-Open No. Hei 6-178685) are summarized and shown in Table 2. In a case of the transaminase action in the present invention, the data of the purified enzyme are used, and in cases of those by other two enzymes, the data of the purified enzymes which are disclosed in each of the literature publication and patent publication are used. Pyruvic acid is used as an amino acceptor in all cases.
Using the purified enzyme obtained in Example 9, reactivities to various amino compounds when using pyruvic acid as an amino acceptor were evaluated. 150 μl of a solution of the purified enzyme diluted ten-folds was added to 150 μl of a substrate solution (0.1 M potassium phosphate buffer (pH 8.3), 40 mM pyruvic acid, 0.1 mM pyridoxal phosphate, and 40 mM various amino compounds). The components were reacted at 30° C. for 1 hour. The reaction tube was transferred into boiling water to stop the reaction, and, thereafter, a part of the reaction mixture was diluted five-folds. Ten μl of 0.1 M boric acid buffer (pH 8.0) and 20 μl of an ethanol solution of 80 mM of 4-fluoro-7-nitro-2,1,3-benzoxadiazole (NBD-F) were added to 10 μl of the above-mentioned diluted reaction mixture. The components were reacted at 60° C. for 1 minute, and, thereafter, the reaction mixture was ice-cooled, and 460 μl of 5 mM HCl was added thereto. This reaction mixture was analyzed by high-performance liquid chromatography using fine pack C18-5 column and using a 0.1 M potassium phosphate buffer (pH 6.5) and CH3CN (90:10) as an eluent solution to detect formation of alanine-NBD using excitation wavelength of 470 nm and using detection wave of […]. The results thereof are shown in Table 8 in terms of relative activity in the case of using […] as a substrate.

The test system of assay [5] is Arthrobacter species KNK168 strain. Nature of the assay: Surfactants and fatty acids as reaction additives; (R)-DMA formation by cells. Type of assay: cell-based. As for the experimental part: The cells obtained by culturing the Arthrobacter species KNK168 strain in the R medium were suspended in a reaction mixture containing 2% of 1-(3,4-dimethoxyphenyl)-2-propanone and 4% of (RS)-1-phenylethylamine. The surfactants and fatty acids shown in Table 6 were added thereto, and the mixture was reacted at 30° C. at a pH of 8.5 for 20 hours.

The mark [6] stands for this setting: 1% amino donor, 1% 1-(3,4-dimethoxyphenyl)-2-propanone, Triton X-100, pH 8.5, 35° C., 20 hours.
Where [7] appears, read: amino acceptor 2-ketoglutaric acid, (R)-1-phenylethylamine/pyruvic acid control = 100.
Setting [8] is: amino acceptor pyruvic acid, (R)-1-phenylethylamine control = 100.
Where [9] appears, read: additive 0.1%, 2% ketone, 4% (RS)-1-phenylethylamine, 30° C., pH 8.5, 20 hours, no addition 28.1.
[10] abbreviates: additive 0.5%, otherwise as 0.1%.

As for 2-Decane, in assay [1], the “Relative Activity (%) of carbonyl compounds” value came out at 3%.
`CC(CN)c1ccccc1` (racemic) [(RS)-1-Amino-2-phenylpropane]: the “(R)-DMA Formed (%), amino group donor” value in assay [2] (pH 8.5) is listed as 1.8%.
With `CC(N)c1cccc2ccccc12` (racemic) [(RS)-1-Naphthylethylamine], the “(R)-DMA Formed (%), amino group donor” value in assay [2] (setting [6]) was 34.2%.
Regarding `CC(N)c1ccccc1` (racemic) [(RS)-1-phenylmethylamine], in assay [2] (setting [6]), the “(R)-DMA Formed (%), amino group donor” value came out at 3.1%.
The same measure, in the same setting: the value for `CC(N)CO` (racemic) [(RS)-2-Amino-1-propanol] was 9.6%.
Consider `CCCC(C)N` (racemic) [(RS)-2-Aminopentane], for which the “function as amino donor” value in assay [2] is recorded as “functioned as amino donors”.
As to `NC(=O)CC(N)C(=O)O` (racemic) [DL-Asparagine], the “Relative Activity (%) as amino donor” value in assay [3] (setting [7]) amounted to 0%.
The same measure, in the same setting: the value for `NC(=O)CCC(N)C(=O)O` (racemic) [DL-Glutamine] was 0%; that for `NCCCCC(N)C(=O)O` (racemic) [DL-Lysine] was 0%.
As to `COc1ccc(CC(C)=O)cc1OC` [1-(3,4-Dimethoxyphenyl)-2-propanone], in assay [1], the “Relative Activity (%) of carbonyl compounds” value stood at 7%.
As to `COCC(C)=O` [1-Methoxy-2-propanone], the “Relative Activity (%) of carbonyl compounds” value in assay [1] is recorded as 16%.
For `CCCCCCC(C)N` (stereo not drawn) [1-Methylheptylamine], the “Relative Activity (%) of amino compounds” value in assay [4] turned out to be 47%.
Still for that read-out and setting: the value for `CCC(C)N` (stereo not drawn) [1-Methylpropylamine] was 1.2%.
Consider `CCC(=O)Cc1ccccc1` [1-Phenyl-2-butanone], for which the “Relative Activity (%) of carbonyl compounds” value in assay [1] was 1%.
Still for that read-out and setting: the same measure for `O=C1CCCc2ccccc21` [1-Tetralone]: 1%; for `CC(=O)c1ccco1` [2-Acetylfuran]: 2%.
For `CC(=O)c1cnccn1` [2-Acetylpyrazine], the “Relative Activity (%) of carbonyl compounds” value in assay [1] was 17%.
Still for that read-out and setting: the same measure for `CC(=O)c1ccccn1` [2-Acetylpyridine]: 19%; for `CC(=O)c1nccs1` [2-Acetylthiazole]: 10%.
Same read-out and setting: the same measure for `CC(=O)c1cccs1` [2-Acetylthiophene]: 1%.
`CCCCCC(C)N` (stereo not drawn) [2-Heptylamine]: the “Relative Activity (%) of amino compounds” value in assay [4] is recorded as 37%.
For the compound `CCC(=O)C(=O)O` [2-Ketobutyric acid], the “Relative Activity (%) of carbonyl compounds” value in assay [1] was found to be 7%.
In the case of `CC(=O)Oc1cccnc1` [3-Acetoxypyridine], the “Relative Activity (%) of carbonyl compounds” value in assay [1] is on record as 1%.
The same measure, in the same setting: the value for `CC(=O)c1cccnc1` [3-Acetylpyridine] was 8%.
For `CC(N)CCc1ccccc1` (stereo not drawn) [3-Aminophenylbutane], in assay [4], the “Relative Activity (%) of amino compounds” value is listed as 84% and the “reactivity of amino compound” value is reported as “favorable reactivities”.
With `COc1ccc(CCC(C)=O)cc1` [4-(4-Methoxyphenyl)-2-butanone], in assay [1], the “Relative Activity (%) of carbonyl compounds” value is reported as 7%.
Still for that read-out and setting: the value for `CC(=O)c1ccncc1` [4-Acetylpyridine] was 27%.
Turning to `C[C@@H](N)c1ccccc1` [(R)-1-Phenylethylamine], the “Relative Activity (%) of amino compounds” value in assay [4] is reported as 100%. Besides, the “activity of the transferase to amino donor” value in assay [3] is on record as “especially high activity”. Also, the “Relative Activity (%) as amino donor” value in assay [3] (setting [8]) amounted to 100%.
As for `COc1ccc(C[C@@H](C)N)cc1OC` [(R)-3,4-Dimethoxyaminopropane], the “Relative Activity (%) of amino compounds” value in assay [4] was 30%.
As for `N[C@H](CO)c1ccccc1` [(S)-2-Phenylglycinol], in assay [4], the “Relative Activity (%) of amino compounds” value was determined as 180% and the “reactivity of amino compound” value is reported as “favorable reactivities”.
For the compound `CC(=O)CCc1ccccc1` [Benzyl acetone], the “Relative Activity (%) of carbonyl compounds” value in assay [1] came out at 3%.
On to `CCCCCCCCCCCCCCCC[N+](C)(C)C.[Br-]` [Cetyl trimethyl ammonium bromide (CTAB), Cetyl trimethyl ammonium bromide], for which, in assay [5] (setting [9]), the “(R)-DMA Formed (%), additive” value was determined as 29.1%.
For the compound `CC(=O)C(C)=O` [Diacetyl], the “Relative Activity (%) of carbonyl compounds” value in assay [1] was 10%.
Consider `CCOC(=O)CC(C)=O` [Ethyl acetoacetate], for which the “Relative Activity (%) of carbonyl compounds” value in assay [1] came out at 4%.
The same measure, in the same setting: the same measure for `CCOC(=O)CC(=O)c1ccccc1` [Ethyl benzoyl acetate]: 2%.
On to `CCOC(=O)C(C)=O` [Ethyl pyruvate], for which the “Relative Activity (%) of carbonyl compounds” value in assay [1] is listed as 27%.
Same read-out and setting: the value for `O=CC(=O)O` [Glyoxylic acid] was 4%.
For the compound `N[C@H](CO)Cc1ccccc1` [L-Phenylalaninol], the “Relative Activity (%) of amino compounds” value in assay [4] is 0.8%.
Take `CCCCC/C=C\C/C=C\CCCCCCCC(=O)O` [Linoleic Acid]: the “effect of additive on rate of reaction” value in assay [5] was “rate of reaction was increased”. In addition, the “(R)-DMA Formed (%), additive” value in assay [5] (additive 2.9%) worked out at 45.1%.
Turning to `CCCCCCCC/C=C\CCCCCCCC(=O)O` [Oleic Acid], the “effect of additive on rate of reaction” value in assay [5] is “rate of reaction was increased”. Moreover, in assay [5] (additive 2.9%), the “(R)-DMA Formed (%), additive” value is 44.9%.
Take `O=C(O)CC(=O)C(=O)O` [Oxalacetic acid]: in assay [1], the “reactivity of carbonyl compound” value is listed as “favorable reactivities” and the “Relative Activity (%) of carbonyl compounds” value was found to be 87%.
On the same counts, the results for `CC(=O)COc1ccccc1` [Phenoxy-2-propanone] are “favorable reactivities” and 83%.
For the compound `O=CCc1ccccc1` [Phenyl acetaldehyde], the “Relative Activity (%) of carbonyl compounds” value in assay [1] is given as 13%.
On the same count and under the same terms, the same measure for `CC(=O)C(=O)O` [Pyruvic acid]: 100%.
With `CCCCCCCCCCCCOS(=O)(=O)[O-].[Na+]` [Sodium dodecyl sulfate], the “effect of additive on rate of reaction” value in assay [5] is “rate of reaction was increased”. The “(R)-DMA Formed (%), additive” value stood at 45.3% in assay [5] (setting [9]); 42.2% in assay [5] (setting [10]); 46.3% in assay [5] (additive 1.0%); 50.1% in assay [5] (additive 2.0%); 51.9% in assay [5] (additive 3.0%); 53.1% in assay [5] (additive 4.0%).
For `NCCS(=O)(=O)O` [Taurine], the “Relative Activity (%) as amino donor” value in assay [3] (setting [7]) turned out to be 0%.
For the compound `NCCC(N)C(=O)O` (stereo not drawn) [α-2,4-Diaminobutyric acid], the “Relative Activity (%) as amino donor” value in assay [3] (setting [8]) worked out at 0%.
For Triton X-100, the “(R)-DMA Formed (%), additive” value in assay [5] (setting [9]) is on record as 31.6%; in assay [5] (setting [10]), 34.0%.

(Values after patent US6344351B2, “(R)-transaminase from arthrobacter” (Kaneka Corporation, priority 1995, dated 2002).)
